Results taken from PubChem BioAssay (NCI).
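96-well plates; 48 h exposure; 5 concentrations. Endpoints by linear interpolation between flanking doses. Not reached: highest tested concentration assigned. TGI: total growth inhibition.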

Experiments:
Experiment in all cases: NCI tumour cell line growth inhibition, 48 h
[1] = system: 786-0 renal
[2] = system: NCI-H460 lung
[3] = system: SK-OV-3 ovarian
[4] = system: NCI-H226 lung
[5] = system: HCT-116 colon
[6] = system: UACC-62 melanoma
[7] = system: HCT-15 colon
[8] = system: K-562 leukemia
[9] = system: KM20L2 colon
[10] = system: SK-MEL-28 melanoma
[11] = system: OVCAR-5 ovarian
[12] = system: CCRF-CEM leukemia
[13] = system: SNB-75 CNS
[14] = system: LXFL 529 NSCLC
[15] = system: OVCAR-4 ovarian
[16] = system: XF 498 CNS
[17] = system: OVCAR-3 ovarian
[18] = system: MALME-3M melanoma
[19] = system: SNB-19 CNS
[20] = system: MOLT-4 leukemia
[21] = system: M19-MEL melanoma
[22] = system: KM12 colon
[23] = system: U251 CNS
[24] = system: M14 melanoma
[25] = system: CAKI-1 renal
[26] = system: HOP-18 NSCLC
[27] = system: RPMI-8226 leukemia
[28] = system: UACC-257 melanoma
[29] = system: SW-620 colon
[30] = system: HOP-92 NSCLC
[31] = system: HCC-2998 colon
[32] = system: SK-MEL-5 melanoma
[33] = system: EKVX NSCLC
[34] = system: IGROV1 ovarian
[35] = system: OVCAR-8 ovarian
[36] = system: LOX IMVI melanoma
[37] = system: SN12C renal
[38] = system: SF-268 CNS
[39] = system: RXF-631 renal
[40] = system: ACHN renal
[41] = system: NCI-H23 lung
[42] = system: HL-60(TB) leukemia
[43] = system: TK-10 renal
[44] = system: A498 renal
[45] = system: HT29 colon
[46] = system: DMS 273 small cell lung
[47] = system: SNB-78 CNS
[48] = system: SR leukemia
[49] = system: HOP-62 NSCLC
[50] = system: RXF 393 renal
[51] = system: DMS 114 small cell lung
[52] = system: COLO 205 colon
[53] = system: SF-539 CNS
[54] = system: SF-295 CNS
[55] = system: DLD-1 colon
[56] = system: A549 NSCLC
[57] = system: SK-MEL-2 melanoma
[58] = system: MCF7 breast
[59] = system: P388 leukemia
[60] = system: P388/ADR leukemia
[61] = system: NCI-H522 lung
[62] = system: NCI/ADR-RES ovarian
[63] = system: SN12K1 renal
[64] = system: UO-31 renal

Q: How did the TGI [1] turn out when COc1cc2[nH]c3c(c2cc1OC)CCN[C@]31CC[C@]2(CC3c4c(cc(OC)c(O)c42)CCN3C)C[C@H]1OC (stereo partly drawn) was run?
A: 32.6 µM

Q: And the TGI [2]?
A: 63.5 µM

Q: And the TGI [3]?
A: 59.1 µM

Q: And the TGI [4]?
A: > 100 µM

Q: What about the TGI [5] of the same molecule?
A: 31.6 µM

Q: What about the TGI [6] of the same molecule?
A: 49 µM

Q: What about the TGI [7] of the same molecule?
A: 43.1 µM

Q: And the TGI [8]?
A: 23.7 µM

Q: And the TGI [9]?
A: 60.5 µM

Q: And the TGI [10]?
A: 36.6 µM

Q: What about the TGI [11] of the same molecule?
A: > 100 µM

Q: What about the TGI [12] of the same molecule?
A: 26.7 µM

Q: What about the TGI [13] of the same molecule?
A: 45.5 µM

Q: What about the TGI [14] of the same molecule?
A: 61 µM

Q: What about the TGI [15] of the same molecule?
A: 43.3 µM

Q: And the TGI [16]?
A: 29.8 µM

Q: And the TGI [17]?
A: 46.2 µM

Q: What about the TGI [18] of the same molecule?
A: 36.3 µM

Q: What about the TGI [19] of the same molecule?
A: > 100 µM

Q: And the TGI [20]?
A: 33.8 µM

Q: And the TGI [21]?
A: 32.9 µM

Q: And the TGI [22]?
A: 35.6 µM

Q: And the TGI [23]?
A: 36 µM

Q: And the TGI [24]?
A: 29.5 µM

Q: What about the TGI [25] of the same molecule?
A: > 100 µM

Q: And the TGI [26]?
A: 46.7 µM

Q: And the TGI [27]?
A: 41.9 µM

Q: What about the TGI [28] of the same molecule?
A: 37.1 µM

Q: And the TGI [29]?
A: 53.3 µM

Q: What about the TGI [30] of the same molecule?
A: 75.7 µM

Q: And the TGI [31]?
A: 29.8 µM

Q: And the TGI [32]?
A: 30.6 µM

Q: And the TGI [33]?
A: > 100 µM

Q: And the TGI [34]?
A: 80.6 µM

Q: And the TGI [35]?
A: 50 µM

Q: What about the TGI [36] of the same molecule?
A: 56 µM

Q: And the TGI [37]?
A: 62.8 µM

Q: And the TGI [38]?
A: 68.2 µM

Q: What about the TGI [39] of the same molecule?
A: 25.7 µM

Q: What about the TGI [40] of the same molecule?
A: 62.4 µM

Q: What about the TGI [41] of the same molecule?
A: > 100 µM

Q: What about the TGI [42] of the same molecule?
A: 24.6 µM

Q: And the TGI [43]?
A: 51.1 µM

Q: What about the TGI [44] of the same molecule?
A: 70.9 µM

Q: And the TGI [45]?
A: 63.3 µM

Q: And the TGI [46]?
A: 4.46 µM

Q: And the TGI [47]?
A: 60.4 µM

Q: And the TGI [48]?
A: 40 µM

Q: What about the TGI [49] of the same molecule?
A: 48 µM

Q: And the TGI [50]?
A: 18.6 µM

Q: And the TGI [51]?
A: 31.4 µM

Q: What about the TGI [52] of the same molecule?
A: 27.3 µM

Q: And the TGI [53]?
A: 31.5 µM

Q: And the TGI [54]?
A: 36.4 µM

Q: What about the TGI [55] of the same molecule?
A: 81 µM

Q: What about the TGI [56] of the same molecule?
A: 68.8 µM

Q: With CCOC(=O)c1ccc(N[C@@H]2c3cc4c(cc3C(c3cc(OC)c(O)c(OC)c3)[C@H]3C(=O)OCC32)OCO4)cc1O (stereo partly drawn) as the molecule, how does the TGI [2] read?
A: 0.822 µM

Q: And the TGI [3]?
A: 2.2 µM

Q: What about the TGI [4] of the same molecule?
A: 2.39 µM

Q: What about the TGI [57] of the same molecule?
A: 1.83 µM

Q: What about the TGI [5] of the same molecule?
A: 8.26 µM

Q: And the TGI [6]?
A: 2.4 µM

Q: What about the TGI [7] of the same molecule?
A: 2.54 µM

Q: What about the TGI [9] of the same molecule?
A: > 22.3 µM

Q: And the TGI [10]?
A: 42 µM

Q: And the TGI [11]?
A: > 100 µM

Q: What about the TGI [58] of the same molecule?
A: > 79.3 µM

Q: And the TGI [12]?
A: > 100 µM

Q: And the TGI [13]?
A: > 23.2 µM

Q: And the TGI [15]?
A: > 100 µM

Q: And the TGI [16]?
A: 16.9 µM

Q: And the TGI [17]?
A: 8.75 µM

Q: What about the TGI [59] of the same molecule?
A: 0.902 µM

Q: What about the TGI [18] of the same molecule?
A: 14.2 µM

Q: What about the TGI [19] of the same molecule?
A: > 25.9 µM

Q: What about the TGI [20] of the same molecule?
A: 1.21 µM

Q: And the TGI [21]?
A: > 55.1 µM

Q: And the TGI [60]?
A: 0.324 µM

Q: And the TGI [22]?
A: 1.47 µM

Q: What about the TGI [25] of the same molecule?
A: 3.26 µM

Q: What about the TGI [61] of the same molecule?
A: 2.07 µM

Q: And the TGI [26]?
A: > 54.4 µM

Q: And the TGI [27]?
A: 4.77 µM

Q: And the TGI [28]?
A: > 100 µM

Q: What about the TGI [29] of the same molecule?
A: > 48.2 µM

Q: What about the TGI [30] of the same molecule?
A: 7.38 µM

Q: What about the TGI [31] of the same molecule?
A: 3.97 µM

Q: And the TGI [32]?
A: 3.02 µM

Q: What about the TGI [33] of the same molecule?
A: > 22.6 µM

Q: What about the TGI [34] of the same molecule?
A: > 43.5 µM

Q: What about the TGI [35] of the same molecule?
A: > 21.9 µM

Q: What about the TGI [36] of the same molecule?
A: 0.442 µM

Q: What about the TGI [38] of the same molecule?
A: 25.3 µM

Q: And the TGI [41]?
A: 4.26 µM

Q: And the TGI [42]?
A: 5.66 µM

Q: And the TGI [62]?
A: 99.3 µM

Q: And the TGI [44]?
A: 2.81 µM

Q: And the TGI [45]?
A: 1.32 µM

Q: What about the TGI [46] of the same molecule?
A: 1.77 µM

Q: What about the TGI [63] of the same molecule?
A: 11.3 µM

Q: What about the TGI [47] of the same molecule?
A: > 100 µM

Q: What about the TGI [49] of the same molecule?
A: 1.56 µM

Q: And the TGI [64]?
A: 78.1 µM

Q: And the TGI [50]?
A: 6.77 µM

Q: And the TGI [51]?
A: 2.03 µM

Q: What about the TGI [52] of the same molecule?
A: 7.69 µM

Q: And the TGI [53]?
A: 2.69 µM

Q: What about the TGI [54] of the same molecule?
A: 2.96 µM

Q: What about the TGI [55] of the same molecule?
A: 4.58 µM

Q: And the TGI [56]?
A: 2.51 µM

Q: What does the source list for CCOC(=O)CCC(=O)C1c2cccc(O)c2C(=O)c2c(O)cc(C)cc21 (stereo not drawn)?
A: TGI [1]: 2.63 µM; TGI [2]: 1.27 µM; TGI [3]: 2.01 µM; TGI [4]: 1.75 µM; TGI [57]: 1.08 µM; TGI [5]: 1.88 µM; TGI [6]: 1.48 µM; TGI [7]: 2.25 µM; TGI [8]: 10.9 µM; TGI [9]: 3.51 µM; TGI [10]: 2.92 µM; TGI [11]: 1.67 µM; TGI [12]: 2.75 µM; TGI [13]: 1.76 µM; TGI [14]: 1.75 µM; TGI [15]: 1.76 µM; TGI [16]: 0.52 µM; TGI [17]: 1.18 µM; TGI [18]: 2.65 µM; TGI [19]: 3.74 µM; TGI [20]: 6.76 µM; TGI [21]: 1.31 µM; TGI [22]: 0.563 µM; TGI [23]: 0.65 µM; TGI [24]: 2.71 µM; TGI [25]: 3.25 µM; TGI [61]: 1.33 µM; TGI [26]: 1.33 µM; TGI [27]: 5.77 µM; TGI [28]: 2.8 µM; TGI [29]: 2.9 µM; TGI [30]: 3.04 µM; TGI [31]: 2.09 µM; TGI [32]: 1.83 µM; TGI [33]: 3.91 µM; TGI [34]: 0.846 µM; TGI [35]: 2.01 µM; TGI [36]: 1.97 µM; TGI [37]: 3.75 µM; TGI [39]: 1.65 µM; TGI [40]: 2.41 µM; TGI [41]: 2.34 µM; TGI [42]: 1.8 µM; TGI [43]: 3.39 µM; TGI [44]: 4.75 µM; TGI [45]: 7.17 µM; TGI [46]: 2.13 µM; TGI [47]: 1.9 µM; TGI [48]: 4.25 µM; TGI [49]: 2.21 µM; TGI [64]: 1.19 µM; TGI [50]: 1.25 µM; TGI [51]: 0.8 µM; TGI [52]: 3.57 µM; TGI [53]: 0.535 µM; TGI [54]: 0.878 µM; TGI [55]: 3.58 µM; TGI [56]: 3.86 µM
